Consider eight compounds from publication PMC12624906, “Discovery of benzyl carbamate inhibitors of coronavirus M^pro enzymes from a legacy collection of cysteine protease inhibitors” (Journal of Enzyme Inhibition and Medicinal Chemistry, 2025).

Series [1] deals with T1, SARS-CoV-2 M^pro (Severe acute respiratory syndrome coronavirus 2, UniProt P0DTD1). As to the kind of experiment: biochemical. It is filed as biochemical. Particulars: for fold decrease in IC50 with 15-min pre-incubation vs without: SARS-CoV-2 M^pro, 15-min vs 0-min pre-incubation.
Series [2] deals with T1, SARS-CoV-2 M^pro. As to the kind of experiment: biochemical. As to conditions: compound at 10 μM, 15-min pre-incubation, relative to DMSO control, mean ± SE; for % inhibition of SARS-CoV-2 M^pro activity: 10 µM.
The next series deals with SARS-CoV M^pro (Severe acute respiratory syndrome coronavirus, UniProt P0C6X7). As to the kind of experiment: biochemical. It is filed as biochemical. Particulars: for IC50: n = 6.
The target in series [3] is T2, human cathepsin L (hCatL) (Homo sapiens, UniProt P07711).
T2 construct: purchased R&D Systems 952-CY-010
As to the kind of experiment: hCatL inhibition assay (Z-Phe-Arg-AMC). It counts as biochemical. As to conditions: 15-min pre-incubation; pH 5.5; n = 6.

The next series concerns the target SARS-CoV-2 PL^pro (Severe acute respiratory syndrome coronavirus 2, UniProt P0DTD1). As to the kind of experiment: biochemical. As to conditions: 15-min pre-incubation, one assay in triplicate (n = 3), mean ± SE.
For series [4], the target named is T1, SARS-CoV-2 M^pro. It is filed as biochemical. Particulars: pre-incubated 30 min at 10-fold IC50 with 100× enzyme, diluted 100-fold to 0.1-fold IC50; monitored 2 h.
Series [5] concerns the target T1, SARS-CoV-2 M^pro. As to the kind of experiment: biochemical. It counts as biochemical. Particulars: for IC50: 15-min pre-incubation, two independent assays in triplicate (n = 6).
A further series deals with MERS-CoV M^pro (Middle East respiratory syndrome-related coronavirus, UniProt K9N7C7). As to the kind of experiment: biochemical. Particulars: for IC50: n = 6. It counts as biochemical.
Series [6] in a line: in vitro. As to conditions: green monkey.
Series [7] in a line: in vitro. Particulars: mouse.
The target in series [8] is T2, human cathepsin L (hCatL). Details: method as in PMID 37435731. Particulars: E-64 data reported previously; cited from earlier work.
In a further series the test system is L929 cells. Details: method as in PMID 39072124. As to conditions: ribavirin data reported previously; cited from earlier work.
Another series deals with Vero cells. Further details: method as in PMID 38194508. Particulars: ribavirin data reported previously; cited from earlier work.
Where [9] appears, read: 15-min pre-incubation before substrate, value per independent assay (Figure 3, black), read-out: IC50 SARS-CoV-2 M^pro, 15-min pre-incubation.
The mark [10] stands for this setting: 30-min pre-incubation before substrate, value per independent assay (Figure 3, violet), read-out: IC50 SARS-CoV-2 M^pro, 30-min pre-incubation.
Where [11] appears, read: no pre-incubation before substrate, value per independent assay (Figure 3, teal), read-out: IC50 SARS-CoV-2 M^pro, 0-min pre-incubation.

Values joined by “and” are separate entries in the source; they are usually repeats but may differ in a detail not shown here. Identical values can stand only once. Like-named read-outs stand apart in the source and are kept apart here.

Chain of MERS-CoV M^pro (K9N7C7 3248-3553 limits assumed): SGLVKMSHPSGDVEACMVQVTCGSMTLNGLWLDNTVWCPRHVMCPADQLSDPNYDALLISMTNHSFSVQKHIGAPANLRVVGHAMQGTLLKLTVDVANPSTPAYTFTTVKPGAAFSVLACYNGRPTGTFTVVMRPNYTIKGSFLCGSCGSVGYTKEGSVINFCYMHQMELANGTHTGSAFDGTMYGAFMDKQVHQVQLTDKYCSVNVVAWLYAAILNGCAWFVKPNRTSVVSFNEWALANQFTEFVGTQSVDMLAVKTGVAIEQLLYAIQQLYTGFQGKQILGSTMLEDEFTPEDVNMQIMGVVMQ
T2 sequence (P07711 114-333): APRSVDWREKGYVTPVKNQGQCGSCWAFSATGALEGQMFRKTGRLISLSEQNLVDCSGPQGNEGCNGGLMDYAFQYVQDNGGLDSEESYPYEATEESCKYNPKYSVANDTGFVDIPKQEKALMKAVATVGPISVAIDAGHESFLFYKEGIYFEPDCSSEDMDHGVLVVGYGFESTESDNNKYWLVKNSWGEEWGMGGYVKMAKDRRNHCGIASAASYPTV

Consider `COC(=O)/C=C/C(=O)[C@@H](C)NC(=O)[C@H](Cc1ccccc1)NC(=O)OCc1ccccc1` [Compound 1a], for which the IC50 at SARS-CoV-2 M^pro [1] (setting [9]) was 433 nM and 397 nM; at SARS-CoV-2 M^pro [1] (setting [10]) it was 249 nM and 301 nM; on SARS-CoV-2 M^pro [1] (setting [11]), 1020 nM and 1160 nM; against SARS-CoV M^pro, 699 ± 12.5 nM; in series [3], 319 ± 1 nM; on SARS-CoV-2 M^pro [5], 415 ± 18 nM. The compound also showed an IC50 at MERS-CoV M^pro of 3790 ± 640 nM. Further, the “fold decrease in IC50 with 15-min pre-incubation vs without” value (from here on “fold decrease in IC50 … vs without”) at SARS-CoV-2 M^pro [1] was ~2 fold. Moreover, the results for the inhibition at 10 µM against SARS-CoV-2 M^pro [2] and against SARS-CoV-2 PL^pro were > 95% and 0%, respectively. Moreover, the “% inhibition of SARS-CoV-2 M^pro activity” value on SARS-CoV-2 M^pro [2] was 96.75 ± 1.04%. For the same compound, the “inhibition after rapid dilution (reversibility)” value (“inhibition after rapid dilution” for short) against SARS-CoV-2 M^pro [4] is on record as “reversible inhibition”. Besides, the figures for the CC50 at 48 h in “in vitro [6]” and in “in vitro [7]” were 17200 ± 500 nM and 73500 ± 4340 nM, respectively.

`O=C(NC(CCc1ccccc1)C(O)c1cc1=O)C(Cc1ccccc1)NC(=O)N1CCOCC1` (centres unmarked) [Compound 2a]: the inhibition at 10 µM against SARS-CoV-2 M^pro [2] came out at 54 ± 1.34%; against SARS-CoV-2 PL^pro it was 5.2 ± 1.23%. In addition, the IC50 against SARS-CoV M^pro is > 10000 nM; in [3], 184 ± 3 nM; against SARS-CoV-2 M^pro [5], 8120 ± 40 nM; against MERS-CoV M^pro, > 10000 nM.

In the case of `CCOC(=O)C1CCN(C(=O)N[C@@H](CC(C)C)C(=O)N[C@@H](/C=C/S(=O)(=O)c2ccccc2)COc2ccccc2)CC1` [Compound 3a], the inhibition at 10 µM is 51.5 ± 1.38% against SARS-CoV-2 M^pro [2] and 1.84 ± 2.85% against SARS-CoV-2 PL^pro. Further, the IC50 was > 10000 nM against SARS-CoV M^pro, 763 ± 79 nM in series [3], 16420 ± 90 nM against SARS-CoV-2 M^pro [5] and > 10000 nM against MERS-CoV M^pro.

On to `O=C(N[C@H](CCc1ccccc1)C(=O)CS(=O)(=O)c1ccccc1)[C@H](Cc1ccccc1)NC(=O)N1CCOCC1` [Compound 4a], for which the inhibition at 10 µM against SARS-CoV-2 M^pro [2] was 52.5 ± 3.61%; against SARS-CoV-2 PL^pro, 1.56 ± 4.68%. Moreover, the IC50 was > 10000 nM against SARS-CoV M^pro, 10700 ± 240 nM in [3], 8720 ± 540 nM at SARS-CoV-2 M^pro [5] and > 10000 nM on MERS-CoV M^pro.

As to `C=CC(=O)[C@@H](C)NC(=O)[C@@H](Cc1ccccc1)NC(=O)OCc1ccccc1` [Compound 5a], the IC50 is 154 nM and 166 nM on SARS-CoV-2 M^pro [1] (setting [9]); 103 nM and 115 nM at SARS-CoV-2 M^pro [1] (setting [10]); 757 nM and 708 nM at SARS-CoV-2 M^pro [1] (setting [11]); 110 ± 17.3 nM at SARS-CoV M^pro; > 10000 nM in [3]; 160 ± 5.8 nM against SARS-CoV-2 M^pro [5]. In addition, half-maximal inhibition at MERS-CoV M^pro (IC50) was put at 830 ± 53.5 nM. Besides, the “fold decrease in IC50 … vs without” value at SARS-CoV-2 M^pro [1] is given as ~4 fold. For the same compound, the figures for the inhibition at 10 µM against SARS-CoV-2 M^pro [2] and against SARS-CoV-2 PL^pro were > 95% and 6.14 ± 2.42%, respectively. Also, at SARS-CoV-2 M^pro [2], the “% inhibition of SARS-CoV-2 M^pro activity” value was 100.00 ± 0.00%. In addition, the “IC50 hCatL” value in series [3] was “inactive”. Further, at SARS-CoV-2 M^pro [4], the “inhibition after rapid dilution” value is given as “reversible inhibition”. In addition, on MERS-CoV M^pro, the “fold decrease in activity against MERS-CoV M^pro compared to SARS-related M^pro enzymes” value is reported as ~5 fold. Moreover, the CC50 at 48 h in the series “in vitro [6]” is 49000 ± 3280 nM; in the series “in vitro [7]”, 102000 ± 2060 nM.

Regarding `C=CC(=O)[C@H](C)NC(=O)[C@@H](Cc1ccccc1)NC(=O)OCc1ccccc1` [Compound 5b], the IC50 is 134 nM and 122 nM on SARS-CoV-2 M^pro [1] (setting [9]); 114 nM and 111 nM at SARS-CoV-2 M^pro [1] (setting [10]); 639 nM and 707 nM on SARS-CoV-2 M^pro [1] (setting [11]); 73 nM and 73.2 nM at SARS-CoV M^pro; > 10000 nM in series [3]; 128 ± 6 nM against SARS-CoV-2 M^pro [5]. Besides, the “fold decrease in IC50 … vs without” value at SARS-CoV-2 M^pro [1] is ~4 fold. On SARS-CoV-2 M^pro [2], this compound came in with an inhibition at 10 µM of 100%. Further, the “fold greater IC50 than nirmatrelvir, SARS-CoV M^pro” value on SARS-CoV M^pro amounted to 2.4 fold. Moreover, the “IC50 hCatL” value in [3] is “inactive”. Further, the “inhibition after rapid dilution” value against SARS-CoV-2 M^pro [4] is recorded as “reversible inhibition”. Besides, at SARS-CoV-2 M^pro [5], the “fold less potent than nirmatrelvir, SARS-CoV-2 M^pro IC50” value was “approximately 7 fold”. Further, the CC50 at 48 h in the series “in vitro [6]” turned out to be 37500 ± 2140 nM; in “in vitro [7]”, 85900 ± 1690 nM.

Turning to `CC(C)C[C@H](NC(=O)[C@H]1O[C@@H]1C(=O)O)C(=O)NCCCCN=C(N)N` [Compound E-64], the IC50 in series [8] was 8 ± 1 nM.

Take `NC(=O)c1ncn([C@@H]2O[C@H](CO)[C@@H](O)[C@H]2O)n1` [Ribavirin, ribavirin]: the CC50 in the series on L929 cells and in the series with Vero cells was > 100000 nM in each case.

As usually defined, the IC50 is the midpoint of a concentration-inhibition curve. As a reminder, the inhibition is the relative decrease from the control value, in per cent.
